From PMC7556346 (Cell chemical biology, 2020)
“Also recorded” adds a separate entry of the source. Blank lines part the entries; values can stand above or below the molecule they belong to.

Tests used:
[1] = test system: CTD110.6 antibody; assay: CTD110.6 antibody binding on glycopeptide microarrays
[2] = test system: Wheat Germ Agglutinin (WGA); assay: Lectin binding on microarray; conditions: control glycans on the GP1 array; TSM binding buffer pH 7.4, 1 hr, room temperature

Molecule: CC(=O)N[C@H]1C(O)O[C@H](CO)[C@H](O)[C@@H]1O (stereo partly drawn) [GalNAc]
effect of free GalNAc on CTD110.6 non-specific binding (hapten) ([1]; GP2 array printed at 100 μM, 20 mM GalNAc): specificity can be restored; also recorded: can be prevented

effect of free GlcNAc on CTD110.6 binding (hapten competition) ([1]; GP1 array, 20 mM GlcNAc): completely abolished
Molecule: CC(=O)N[C@H]1C(O)O[C@H](CO)[C@@H](O)[C@@H]1O (stereo partly drawn) [GlcNAc]

binding of WGA to control glycans [2]: exhibited lectin binding with WGA
Molecule: chitin
